Patent publication US20030104473A1, “Common ligand mimics: benzimidazoles” (priority 2001, published 2003)
Read-outs that look alike come from different tables or passages of the source.

Columns and labels:
[1] = target: dihydrodipicolinate reductase (DHPR) (Escherichia coli, UniProt P04036); assay: DHPR kinetic assay, spectrophotometric oxidation of NADPH at 340 nm; assay type: biochemical
Experimental: For DHPR analysis, the compounds were screened using a kinetic protocol that spectrophotometrically evaluates oxidation of NADPH.
Stock solutions of each of the reagents were prepared in the following concentrations. Dilutions of the stock solutions were prepared prior to running the assay in the concentrations indicated below. DHPR was diluted in 10 mM HEPES at a pH of 7.4. DHPS (dihydrodipicolinate synthase) was not diluted and was stored in eppindorf tubes.
The L-ASA (L-aspartate semialdehyde) solution was prepared in the following manner. […] stock solution of ASA was prepared. 100 μl of the ASA stock solution was mixed with 150 μl of concentrated NaHCO3 and 375 μl of H2O. For use in the assay, 28.8 mM L-ASA was equal to 625 μl of the solution. The L-ASA stock Aft solution was kept at a temperature of −20° C. After dilution, the pH of the 28.8 mM solution was checked and maintained between 1 and 2.
The DHPS reaction was monitored at 340 nm prior to and after addition of the inhibitor to detect background reaction with the inhibitor. The solution for background detection was a 945 μl solution containing 0.1 HEPES (pH 7.8), 1 mM pyruvate, 6 μM NADPH, 40 μM L-ASA, and 7 μl of 1 mg/ml DHPS at 25° C. in the volumes provided above. The sample solution was then mixed and incubated for 10 minutes. Next, 500 nM solutions of the inhibitors and enough DMSO to provide a final DMSO concentration of 5% of the total assay volume were added. The solution was mixed and incubated for an additional 6 minutes.
In DHPR samples, 5 μl of the diluted DHPR enzyme were added. The sample was mixed for 20 seconds and then the reaction was run for 10 minutes. After a 50 second lag, the samples were read in a Cary spectrophotometer at 340 nm. Reading of the samples was continued until 300 seconds. Cuvette #1 contained the control reaction (no inhibitor), and cuvette #2 contained the positive control reaction in which Cibacron Blue at 2.58 μM was substituted for inhibitor to yield 70 to 80% inhibition. The substrate was kept at a level at least 10 times the Km. The final concentration of L-ASA was about 1 mM.

[2] = target: T1, lactate dehydrogenase (LDH) (Oryctolagus cuniculus, UniProt P13491); assay: LDH kinetic assay, spectrophotometric oxidation of NADH at 340 nm; assay type: biochemical, Rabbit Muscle; settings: Cibacron Blue at 10.3 μM; read-out: inhibition of LDH (positive control)
T1 construct: 10 μl of LDH from Rabbit Muscle; from tissue; host or cells: rabbit muscle
Experimental: For LDH analysis, the compounds were screened using a kinetic protocol that spectrophotometrically evaluates oxidation of NADH.
(§1) Stock solutions of each of the reagents were prepared in the following concentrations. Dilutions of the stock solutions were prepared prior to running the assay in the concentrations indicated below.
The LDH reaction was monitored at 340 nm prior to and after addition of the inhibitor to detect background reaction with the inhibitor. Solutions of 100 μl of the inhibitors in DMSO were prepared to provide a final DMSO concentration of 5% of the total assay volume. These solutions were incubated for 6 minutes at 25° C. in a 990 μl of a solution containing 0.1 M HEPES, pH 7.4, 10 μM NADH, and 2.5 mM of pyruvate. The reaction was then initiated with 10 μl of LDH from Rabbit Muscle (0.5 μg/ml; 1:2000 dilution of 1.0 mg/ml). After the enzyme was added, the solution was mixed for 20 seconds, and the reaction was run for 10 minutes. After a 50 second lag, the samples were read in a Cary spectrophotometer at 340 nm. Reading of the samples was continued until 300 seconds. Cuvette #1 contained the control reaction (no inhibitor), and cuvette #2 contained the positive control reaction in which Cibacron Blue at 10.3 μM was substituted for inhibitor to yield 50 to 70% inhibition. The substrate was kept at a level at least 10 times the Km.

[3] = target: 1-deoxy-D-xylulose-5-phosphate reductase (DOXPR) (Escherichia coli, UniProt P45568); assay: DOXPR kinetic assay, spectrophotometric oxidation of NADPH at 340 nm; assay type: biochemical; settings: Cibacron Blue at 10.32 μM; read-out: inhibition of DOXPR (positive control)
Sequence of 1-deoxy-D-xylulose-5-phosphate reductase (DOXPR) (P45568 whole entry): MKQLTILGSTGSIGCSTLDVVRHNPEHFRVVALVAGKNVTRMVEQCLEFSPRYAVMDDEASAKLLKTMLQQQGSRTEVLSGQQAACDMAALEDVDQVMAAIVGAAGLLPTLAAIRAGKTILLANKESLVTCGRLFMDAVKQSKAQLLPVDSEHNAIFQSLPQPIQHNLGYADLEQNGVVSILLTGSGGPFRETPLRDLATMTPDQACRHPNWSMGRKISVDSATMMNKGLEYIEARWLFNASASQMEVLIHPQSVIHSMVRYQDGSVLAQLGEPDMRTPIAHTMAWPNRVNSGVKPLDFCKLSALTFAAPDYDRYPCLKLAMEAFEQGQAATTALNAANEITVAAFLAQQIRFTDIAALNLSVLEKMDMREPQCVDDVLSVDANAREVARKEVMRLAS
Experimental: For DOXPR analysis, the compounds were screened using a kinetic protocol that spectrophotometrically evaluates oxidation of NADPH.
Stock solutions of each of the reagents were prepared in the following concentrations. Dilutions of the stock solutions were prepared prior to running the assay in the concentrations indicated below. DOXPR was diluted in 10 mM HEPES at a pH of 7.4.
The DOXPR reaction was monitored at 340 nm prior to and after addition of the inhibitor to detect background reaction with the inhibitor. Solutions of the inhibitors in DMSO were prepared to provide a final DMSO concentration of 5% of the total assay volume. These solutions were incubated for 6 minutes at 25° C. in a 990 μl of a solution containing 0.1 M HEPES, pH 7.4, 1 mM MnCl21.15 mM DOXP, and 8 μM NADPH. The oxidation reaction was then initiated with 10 μl of DOXP reductoisomerase (10 μg/ml). After the enzyme was added, the solution was mixed for 20 seconds, and the reaction was run for 10 minutes. After a 50 second lag, the samples were read in a Cary spectrophotometer at 340 nm. Reading of the samples was continued until 300 seconds. Cuvette #1 contained the control reaction (no inhibitor), and cuvette #2 contained the positive control reaction in which Cibacron Blue at 10.32 μM was substituted for inhibitor to yield 70 to 80% inhibition. The substrate was kept at a level at least 10 times the Km.

[4] = target: T2, alcohol dehydrogenase (ADH) (Saccharomyces cerevisiae, UniProt P00330); assay: ADH kinetic assay, spectrophotometric reduction of NAD+ at 340 nm; assay type: biochemical, Bakers Yeast; settings: Cibacron Blue at 15.5 μM; read-out: inhibition of ADH (positive control)
T2 construct: 10 μl of ADH from Bakers Yeast; host or cells: baker's yeast
T2 sequence (P00330 1-348): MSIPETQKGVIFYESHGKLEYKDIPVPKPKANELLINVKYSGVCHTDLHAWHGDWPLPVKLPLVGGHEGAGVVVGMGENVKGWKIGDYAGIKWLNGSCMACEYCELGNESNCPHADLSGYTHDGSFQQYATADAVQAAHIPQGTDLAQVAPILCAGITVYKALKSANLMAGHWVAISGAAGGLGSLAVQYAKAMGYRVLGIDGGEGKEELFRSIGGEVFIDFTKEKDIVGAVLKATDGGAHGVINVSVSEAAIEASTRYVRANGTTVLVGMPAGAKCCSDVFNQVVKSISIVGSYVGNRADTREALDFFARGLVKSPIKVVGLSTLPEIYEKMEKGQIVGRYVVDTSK
Experimental: For ADH analysis, the compounds were screened using a kinetic protocol that spectrophotometrically evaluates reduction of NAD+.
as §1
The ADH reaction was monitored at 340 nm prior to and after addition of the inhibitor to detect background reaction with the inhibitor. Solutions of 100 μl of the inhibitors in DMSO were prepared to provide a final DMSO concentration of 5% of the total assay volume. These solutions were incubated for 6 minutes at 25° C. in a 990 μl of a solution containing 0.1 M HEPES, pH 8.0, 80 μM NAD+, and 130 mM of ethanol. The reaction was then initiated with 10 μl of ADH from Bakers Yeast ([…]; 1:400 dilution of 1.0 mg/ml). After the enzyme was added, the solution was mixed for 20 seconds, and the reaction was run for 10 minutes. After a 50 second lag, the samples were read in a Cary spectrophotometer at 340 nm. Reading of the samples was continued until 300 seconds. Cuvette #1 contained the control reaction (no inhibitor), and cuvette #2 contained the positive control reaction in which Cibacron Blue at 15.5 μM was substituted for inhibitor to yield 50 to 60% inhibition. The substrate was kept at a level at least 10 times the Km. The final concentration of […] was about 2.5 mM.
Where only a simple read was desired, as in the case of NAD+ concentration determination, 13 μl (10 M stock) of ethanol was used to drive the reaction, and 10 μl of pure enzyme (1 mg/ml) was used. NAD+was soluble at 2 mM, which allowed the concentration determination step to be skipped. In this situation, the procedure was as follows. All of the ingredients except for the enzyme were mixed together. The solution was mixed well and the absorbance at 340 nm read. The enzyme was added and read again at OD 340 after the absorbance stopped changing, generally 10 to 15 minutes after the enzyme was added.

[5] = Example 14, common ligand mimics (FIG. 8), read-out: IC50 for DHPR
[6] = Example 15, bi-ligands (FIG. 9), read-out: IC50 value for dihydrodipicolinate reductase (DHPR)

Sequence of dihydrodipicolinate reductase (DHPR) (P04036 whole entry): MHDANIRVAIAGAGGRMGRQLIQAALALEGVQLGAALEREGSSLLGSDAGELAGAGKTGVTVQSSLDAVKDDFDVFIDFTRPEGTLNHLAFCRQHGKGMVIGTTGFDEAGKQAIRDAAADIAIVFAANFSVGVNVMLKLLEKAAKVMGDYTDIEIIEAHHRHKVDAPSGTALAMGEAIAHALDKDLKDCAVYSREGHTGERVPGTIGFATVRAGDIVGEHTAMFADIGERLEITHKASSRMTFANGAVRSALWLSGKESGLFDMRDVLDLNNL

| Structure (SMILES) | IC50 [1, 5] [µM] | IC50 [1, 6] [µM] | further results |
| --- | --- | --- | --- |
| Cc1cccc2[nH]c(-c3ccc(-c4ccc(C(=O)O)cc4)o3)nc12 [compound 6a, 4-[5-(4-methyl-1H-benzimidazol-2-yl)-furan-2-yl]-benzoic acid] | > 100 |  |  |
| Nc1c(S(=O)(=O)O)cc(Nc2ccc(Nc3nc(Cl)nc(Nc4ccccc4S(=O)(=O)O)n3)c(S(=O)(=O)O)c2)c2c1C(=O)c1ccccc1C2=O [Cibacron Blue, reference compound] |  |  | inhibition at 2.58 µM ([1]; Cibacron Blue at 2.58 μM, read-out: inhibition of DHPR (positive control)): 70 to 80%; inhibition at 10.3 µM [2]: 50 to 70%; inhibition at 10.32 µM [3]: 70 to 80%; inhibition at 15.5 µM [4]: 50 to 60% |
| O=C(NCCSc1cc(C(=O)O)nc(C(=O)O)c1)c1ccc(-c2ccc(-c3nc4ccccc4[nH]3)o2)cc1 [compound 21b, 4-(2-{4-[5-(1H-benzoimidazol-2-yl)-furan-2-yl]-benzoylamino}-ethylsulfanyl)-pyridine-2,6-dicarbolxylic acid] |  | > 1.6 |  |
| COC(=O)c1ccc(-c2ccc(-c3nc4cc([N+](=O)[O-])ccc4[nH]3)o2)cc1 [4-[5-(5-nitro-1H-benzoimidazol-2-yl)-furan-2-yl]-benzoic acid methyl ester] | > 25 |  |  |
| Cc1ccc2[nH]c(-c3ccc(-c4ccc(C(=O)O)cc4)o3)nc2c1 [compound 6c, 4-[5-(5-methyl-1-benzoimidazol-2-yl)furan-2-yl]-benzoic acid] | > 60 |  |  |
| O=C(NCCSc1cc(C(=O)O)nc(C(=O)O)c1)c1ccc(-c2ccc(-c3nc4cc([N+](=O)[O-])ccc4[nH]3)o2)cc1 [compound 21a, 4-(2-{4-[5-(5-nitro-1H-benzoimidazol-2-yl)-furan-2-yl]-benzoylamino)-ethylsulfanyl)-pyridine-2,6-dicarboxylic acid] |  | ~0.758 |  |
